Laboratory results: patent publication US20010049372A1, “Antiviral nucleoside analogues” (BioChem Pharma Inc., priority 1998, published 2001)
Where two headings read alike, the source gives them in different places.

What was measured:
DU-145 = assay: Cellular toxicity by [3H]-thymidine uptake; format: cell-based; conditions: Table 4, 72 hrs
Method: (§1) The cellular toxicity of the compounds were assessed on various cells using [^3H]-thymidine uptake. Various cells, including Molt-4, HT1080, DU-145, HepG-2 and HSF, were plated at a concentration of 1-2×10^3 cells per well (96 well plates). After a 24 hr incubation period, 10-fold serial diluted compounds (b 10^−4 M to 10^−10 M) were added to the culture medium and the cells were further incubated for 72 hrs. [^3H]-thymidine was added during the final 18 hr incubation period. After incubation with the [^3H]-thymidine, the cells were washed once with PBS, treated with trypsin if the cells were adherent, and then resuspended in water (hypotonic lysing of cells). The cellular extract was applied directly to a Tomtec Harvester 96. Using this instrument the extracted DNA is adsorbed onto filters, washed and the incorporated [^3H]-thymidine is then counted. The 50% cytotoxic concentration (CC50) was determined by comparing the radioactive counts per minute of the samples in the presence of the compounds against the control. The cellular toxicity of the compounds was also tested by WST-1 staining through assessing proliferation of MT-2, H9, Jurkat, U937, and CBMCs. The established cell lines were cultured in RPMI medium in 96-well plates at a density of 5×10^4 cells/well while CBMCs were plated at a concentration of 0.5×10^6/well. A 10-fold serial diluted (10^−4-10^−7 M) compound was added at day zero. At day 4, the cells were passaged by changing half medium containing appropriately diluted compound. The cell activities were assessed at day 7 using the WST-1 reagent (Boehringer Mannheim) following the protocol provided by the supplier.
(§2) Cellular toxicity was assessed by [^3H]thymidine uptake (de Muys et al. 1999) and WST-1 staining. In the [^3H]thymidine uptake experiments, Molt-4, HT1080, DU-145, HepG2 and HSF, were plated at a concentration of 1-2×10^3 cells per well (96 well plates). PHA-stimulated PBMCs were cultured at a concentration of 4×10^4 cells per well. Following a 24 hr pre-incubation period, test compounds (10^−4 M to 10^−10 M) were added and the cells were incubated for an additional 72 hrs. [^3H]thymidine was added during the final 18 hr incubation period. The cells were then washed once with PBS, treated with trypsin if the cells were adherent, and resuspended in water (hypotonic lysing of cells). The cellular extract was applied directly to a Tomtec Harvester 96. The 50% cytotoxic concentration (CC50) was determined by comparing the radioactive counts per minute obtained from drug-tested samples to those obtained from the control (untreated) cells.

HSF = assay: Cellular toxicity by [3H]-thymidine uptake; format: cell-based; conditions: Table 4, 72 hrs
Method: as §1, §2

HepG-2 = assay: Cellular toxicity by [3H]-thymidine uptake; format: cell-based; conditions: Table 4, 72 hrs
Method: as §1, §2

Molt-4 = assay: Cellular toxicity by [3H]-thymidine uptake; format: cell-based; conditions: Table 4, 72 hrs
Method: as §1, §2

HT1080 = assay: Cellular toxicity by [3H]-thymidine uptake; format: cell-based; conditions: Table 4, 72 hrs
Method: as §1, §2

[1] = Pharmacokinetic study in male and female rats (single dose iv or po); format: in vivo, rat; conditions: parameters of DAPD & DXG after administration of DAPD
Method: Compound A(−), DAPD, and DXG were administrated as a single dose, either intravenously through the jugular vein at 10 mg/kg or orally at 20, 125, 500, 1000 or 2000 mg/kg. All rats were fasted for 12 hours prior to po dosing treatment. The vehicle used for both iv and po administrations was 0.1% carboxymethylcellulose and 0.1% Tween 80 in distilled water, acidified to pH 3.15 with 1N HCl. Blood samples were taken from rats at the times shown in the schedule below for all oral dosing. From a total of 10 rats for each administration, seven time points were taken for the intravenous through the jugular vein dosing (2, 5, 15, 30, 60, 120 and 240 min) and for the oral dosing (5-360 min) at 20 mg/kg, whereas two additional time points at 480 and 1440 min were taken for the oral doses of 125-2000 mg/kg. As a result, each time point was in quadruplicate, except for the 1440 minute time point when blood samples were taken through the jugular vein from all the rats prior to being euthanized.
Blood samples (1 ml) were collected from the rat tails into a vacutainer containing EDTA (3 ml) for both iv and po administrations. Plasma samples were prepared by centrifugation at 2000×g for 15 minutes at 4° C.
Plasma samples (diluted to 1 ml with water) were loaded onto the Abselut Nexus sorbent (#1210-3100) and drawn through under low vacuum (approximately 5′′ Hg). One milliliter of deionized water was added to the sorbent and drawn through under vacuum. The extraction column was dried for 1 minute using a high vacuum (>10′′ Hg). One milliliter of methanol was added to the Abselut Nexus column and the eluent was collected at 1-2 ml/min. The eluent was evaporated to dryness using a Speed Vac, and the samples were reconstituted in 120 μl H2O; 100 μl was used for injection.

[2] = Preliminary pharmacokinetic study in male adult rats; format: in vivo; conditions: rat
Method: The bioavailability of the compounds were evaluated in male adult rats dosed intravenously through the tail vein (5 mg/kg) and orally (20 mg/kg). The plasma samples were collected at 2, 5, 15, 30, 60, 90, 120 and 240 minutes after intravenous dosing and 5, 15, 30, 60, 90, 120, 240 and 360 minutes after oral dosing.
Blood samples (1 ml) were collected from the rat tails into a vacutainer containing EDTA (3 ml) for both iv and po administrations. Plasma samples were prepared by centrifugation at 2000 ×g for 15 minutes at 4° C.
Plasma samples (diluted to 1 ml with water) were loaded onto the Abselut Nexus sorbent (# 1210-3100 ) and drawn through under low vacuum (approximately 5′′ Hg). One milliliter of deionized water was added to the sorbent and drawn through under vacuum. The extraction column was dried for 1 minute using a high vacuum (>10′′ Hg). One milliliter of methanol was added to the Abselut Nexus column and the eluent was collected at 1-2 ml/min. The eluent was evaporated to dryness using a Speed Vac, and the samples were reconstituted in 120 μl H2O; 100 μl was used for injection.

CBMCs = assay: Cellular toxicity by WST-1 staining; format: cell-based; conditions: Table 4, day 7, read-out: CC50 (μM) WST-1 CBMC
Method: as §1
(§3) In the WST-1 staining experiments, cell lines were cultured in RPMI medium in 96-well plates at a density of 5×10^4 cells/well. CBMCs were plated at a concentration of 0.5×10^6/well. Compounds (10^−4-10^−7 M) were added at day zero. Cell viability was assessed on day 7 using the WST-1 reagent (Boehringer Mannheim) following the protocol provided by the supplier.

PBMCs = assay: Cellular toxicity by [3H]-thymidine uptake; format: cell-based, human; conditions: Table 4, 72 hrs
Method: as §2

HIV-1IIIB = assay: Anti-HIV-1 antiviral assay with HIV-1IIIB in various cell types (RT activity); format: cell-based; conditions: MT-2 cells, determined by RT activity, read-out: EC50 (μM) ± S.D. in MT-2 cells
Method: ANTIVIRAL ASSAYS. The anti-HIV-1 activity of the compound A (−) were assessed by employing HIV-1IIIB in a variety of cell types as previously described (Gu et al., 1992, 1994, 1999; Rando et al., 1995; Salomon et al., 1994). Briefly, cells were incubated with virus at a multiplicity of infection (MOI) of 0.005 for T cell assays and an MOI of 0.5 for monocytic cell assays for 3 hrs. Unbound virus was then removed by washing the cells, followed by seeding the cells into a 96-well plate. The infected cells were cultured in the presence of a serial concentrations of the test compound for 5-7 days. The anti-HIV-1 efficacy was determined by testing for HIV-1 RT activity or p24 level in the cell culture supernatants. All assays were performed in duplicate. Zidovudine and/or lamivudine were used as controls in each experiment.
Activity of the compound A (−) against HIV-1 in various cells. Anti-HIV-1 activity of the compound A (−) were tested in different types of cells, including human peripheral […] cells (PBMCs), T-cell (MT-2 and MT-4) and monocytic cell (U937) lines. The compound A (−) had submicromolar EC50s against HIV-1IIIB in different types of cells tested (Table 2).

[3] = Cellular toxicity by [3H]-thymidine uptake; format: cell-based; conditions: human
Method: as §1, §2

[4] = Cellular toxicity by WST-1 staining; format: cell-based; conditions: human, CBMCs, Table 4, day 7, read-out: CC50 (μM) WST-1 CBMC
Method: as §1, §3

[5] = Cellular toxicity by [3H]-thymidine uptake; format: cell-based, human; conditions: human, Table 14, PHA-stimulated PBMCs, read-out: CC50 (μM) [^3H]TTP incorporation in: PBMC
Method: as §2

SMILES: Nc1nc(N)c2ncn([C@H]3CO[C@@H](CO)O3)c2n1 [DAPD, (−)-β-D -2,6-diaminopurine dioxolane]
- CC50 (DU-145; read-out: CC50 (μM) [^3H-]TTP incorporation in: U-145): > 500 µM
- CC50 (μM) [^3H-]TTP incorporation in: HSF (HSF): 500/350
- CC50 (HepG-2; read-out: CC50 (μM) [^3H-]TTP incorporation in: HepG2): ≥ 500 µM
- CC50 (Molt-4; read-out: CC50 (μM) [^3H-]TTP incorporation in: Molt-4): > 500 µM
- CC50 (HT1080; read-out: CC50 (μM) [^3H-]TTP incorporation in: HT1080): > 500 µM
- AUC ([1]; female rat, iv 10 mg/kg): 357.9 µg·min/mL
- Cmax ([1]; female rat, iv 10 mg/kg): 22100 ng/mL
- T1/2 ([1]; female rat, iv 10 mg/kg): 31.5 min
- AUC ([1]; female rat, po 20 mg/kg): 307.2 µg·min/mL
- Bioavailability (%) ([1]; female rat, po 20 mg/kg): 43%
- Cmax ([1]; female rat, po 20 mg/kg): 2500 ng/mL
- T1/2 ([1]; female rat, po 20 mg/kg): 31.3 min
- Tmax ([1]; female rat, po 20 mg/kg): 45 min
- AUC ([1]; male rat, iv 10 mg/kg): 271.2 µg·min/mL
- Cmax ([1]; male rat, iv 10 mg/kg): 16200 ng/mL
- T1/2 ([1]; male rat, iv 10 mg/kg): 36.2 min
- AUC ([1]; male rat, po 20 mg/kg): 196.5 µg·min/mL
- Bioavailability (%) ([1]; male rat, po 20 mg/kg): 36%
- Cmax ([1]; male rat, po 20 mg/kg): 1960 ng/mL
- T1/2 ([1]; male rat, po 20 mg/kg): 34 min
- Tmax ([1]; male rat, po 20 mg/kg): 35 min
- AUC ([2]; oral 20 mg/kg): 1890 ng·h/mL
- Cmax ([2]; oral 20 mg/kg): 1040 ng/mL
- Oral BA (%) ([2]; oral 20 mg/kg): 7.42%
- T1/2 ([2]; oral 20 mg/kg): 46.2 min
- CC50 (CBMCs): > 100 µM
- CC50 (PBMCs; read-out: CC50 (μM) [^3H-]TTP incorporation in: PBMC): > 500 µM

SMILES: Nc1nc2c(ncn2[C@H]2CO[C@@H](CO)O2)c(=O)[nH]1 [DXG, (−)-β-D -1,3-dioxolane guanine]
- CC50 (μM) [^3H-]TTP incorporation in: U-145 (DU-145): >500/250
- CC50 (HSF; read-out: CC50 (μM) [^3H-]TTP incorporation in: HSF): ≥ 500 µM
- CC50 (μM) [^3H-]TTP incorporation in: HepG2 (HepG-2): >500/250
- CC50 (μM) [^3H-]TTP incorporation in: Molt-4 (Molt-4): >500/250
- CC50 (μM) [^3H-]TTP incorporation in: HT1080 (HT1080): >500/250
- EC50 (HIV-1IIIB; HIV-1IIIB): 0.065 ± 0.039 µM
- AUC ([2]; iv 5 mg/kg): 5150 ng·h/mL
- Cmax ([2]; iv 5 mg/kg): 29020 ng/mL
- T1/2 ([2]; iv 5 mg/kg): 37.2 min
- AUC ([2]; oral 20 mg/kg): 910 ng·h/mL
- Cmax ([2]; oral 20 mg/kg): 270 ng/mL
- Oral BA (%) ([2]; oral 20 mg/kg): 4.43%
- T1/2 ([2]; oral 20 mg/kg): 147 min
- CC50 (CBMCs): > 100 µM
- CC50 (μM) [^3H-]TTP incorporation in: PBMC (PBMCs): >500/250

SMILES: Nc1ccn([C@H]2CC[C@@H](CO)O2)c(=O)n1 [Zalcitabine, zalcitabine]
- CC50 at 72 h ([3]; DU-145 cells, Table 4, read-out: CC50 (μM) [^3H-]TTP incorporation in: U-145): 5 µM
- CC50 at 72 h ([3]; DU-145 cells, Table 14, read-out: CC50 (μM) [^3H]TTP incorporation in: U145): 3.5 µM
- CC50 at 72 h ([3]; HSF cells, Table 14, read-out: CC50 (μM) [^3H]TTP incorporation in: HSF): 2 µM
- CC50 at 72 h ([3]; HT1080 cells, Table 4, read-out: CC50 (μM) [^3H-]TTP incorporation in: HT1080): 2 µM
- CC50 at 72 h ([3]; HT1080 cells, Table 14, read-out: CC50 (μM) [^3H]TTP incorporation in: HT800): 2.5 µM
- CC50 at 72 h ([3]; HepG2 cells, Table 4, read-out: CC50 (μM) [^3H-]TTP incorporation in: HepG2): 7 µM
- CC50 at 72 h ([3]; HepG2 cells, Table 14, read-out: CC50 (μM) [^3H]TTP incorporation in: HepG2): 6.5 µM
- CC50 at 72 h ([3]; Molt-4 cells, Table 4, read-out: CC50 (μM) [^3H-]TTP incorporation in: Molt-4): 2 µM
- CC50 at 72 h ([3]; Molt-4 cells, Table 14, read-out: CC50 (μM) [^3H]TTP incorporation in: Molt4): 1 µM
- EC50 (HIV-1IIIB; Human immunodeficiency virus 1, MT2, HIV-1IIIB): 0.05 µM
- CC50 at 7 days [4]: 29 µM
- CC50 at 72 h [5]: 35.5 µM
- CC50 (μM) [^3H-]TTP incorporation in: PBMC (PBMCs): 50/15
